# Columns and labels:
# [1] = Phage ELISA, bovine polished enamel binding assay; conditions: over 10^10 pfu purified phage, anti-M13 HRP conjugate, TMB, no phage control 0.193
# Experimental: (§1) A total of 11 selected phage candidates (Example 32) was used in a phage ELISA experiment. Purified phage lysates were used for binding to the enamel blocks using an anti-M13 phage antibody conjugated to horseradish-peroxidase, followed by the addition of chromogenic agent TMB, obtained from Pierce Biotechnology (Rockford, Ill.). The plates were read at A450 nm.
# (§2) For each phage candidate to be tested, the polished and unpolished enamel blocks were incubated for 1 h at room temperature with 200 μL of blocking buffer, consisting of 2% non-fat dry milk (Schleicher & Schuell, Inc.) in TBS. The blocking buffer was removed by aspirating the liquid out of each tube. The tube was rinsed 6 times with wash buffer consisting of TBST-0.05%. The wells were filled with 200 μL of TBST-0.5% containing 1 mg/mL BSA and then 10 μL (over 10^10 pfu) of purified phage stock was added. The samples were incubated at room temperature for 60 min with slow shaking. The non-binding phage was removed by washing 6 times with TBST-0.5%. Then, 100 μL of horseradish peroxidase/anti-M13 antibody conjugate (Amersham USA, Piscataway, N.J.), diluted 1:500 in the blocking buffer, was added and incubated for 1 h at room temperature. The conjugate solution was removed and was washed 6 times with TBST-0.5%. TMB substrate (200 μL), obtained from Pierce Biotechnology (Rockford, Ill.) was added to each well and the color was allowed to develop for 5 to 30 min, typically for 10 min, at room temperature. Then, stop solution (200 μL of 2 M H2SO4) was added to each well and the solution was transferred to a 96-well plate and the A450 was measured using a microplate spectrophotometer (Molecular Devices, Sunnyvale, Calif.). BoEn means bovine enamel and BoEn P means polished bovine enamel.
# [2] = Phage ELISA, bovine enamel binding assay; conditions: over 10^10 pfu purified phage, anti-M13 HRP conjugate, TMB, no phage control 0.112
# Experimental: as §1, §2
# [3] = Color retention after shampoo treatment, peptide as sealant with Acid Red 33 dye; design: species or system human; conditions: 0.50 wt % Acid Red 33, peptide 0.25 wt %, 30 min contact, after one shampoo treatment; vs uncolored hair; larger = better color retention; dye alone 19.63
# Experimental: The peptides used in this Example were prepared as described in Examples 1-3. The color retention was quantified using a spectrophotometric measurement technique.
# A peptide given as SEQ ID NO:41, SEQ ID NO:42, or SEQ ID NO:43 (38 mg), produced via fermentation as described in Examples 1-3, was added to 15 g of an aqueous 0.50 wt % solution of Acid Red 33 (Abbey Color, Philadelphia, Pa.) and the solution was allowed to stir for 1 h. A natural white hair tress (1 cm wide, potted, International Hair Importers & Products Inc., Bellerose, N.Y.) was inserted into a 15 mm×125 mm test tube and 13 mL of the peptide/dye mixture was injected into the test tube. The hair tress was immersed in contact with the colorant solution for 30 min and the colorant solution was agitated using a magnetic stirrer. The tress was removed, allowed to drip dry, and then air dried for 30 min.
# The hair tress was then subjected to a water rinse using copious amounts of deionized water, followed by a shampoo treatment with embrocation for 30 seconds. The shampoo treatment involved the application of Pantene Pro-V Sheer Volume shampoo (Proctor & Gamble, Cincinnati, Ohio) to the hair as follows. A quarter-sized drop of the shampoo was distributed evenly over the hair tress and then was massaged aggressively into the hair for 30 sec, after which the hair tress was rinsed with water to remove the shampoo. The hair tress was then dried at room temperature. The entire procedure described above was repeated without the addition of the hair-binding peptide to serve as a control.
# The color intensity after the shampoo treatment was measured using an X-Rite® SP78™ Sphere Spectrophotometer (X-Rite, Inc., Grandville, Mich.), by placing the colored hair sample into the photosensor and calculating L*, a* and b* parameters representing the photometer response. An initial baseline L* value was measured for the uncolored hair and all measurements were the average of three individual determinations. Delta E values were calculated using equation 1 below: […]
# [4] = Co-application of multi-block peptide with semi-permanent dye (Arianor Ebony), color retention; design: species or system human; conditions: difference in Delta E between peptide sample and peptide free control after 3 embrocation cycles (about 12 manual shampoos); pH 8.5-9.0; >2 benefit, >4 substantial benefit
# Experimental: (§3) A 0.5% aqueous solution of Arianor Ebony (Sensient Technologies Corp, Milwaukee, Wis.) containing 3% benzyl alcohol and 0.05% diazolidinyl urea (biocide) was prepared. Dye insolubles were removed by filtration and the pH of the dye solution was adjusted to 8.50-9.0, using ethanolamine.
# (§4) Approximately 1 mL of the dye solution was added to selected wells of a 24-well plate (Thomson Instrument Co., Oceanside, Calif.; part # 931565). A multi-block peptide (see Table 12) was dissolved in a solution consisting of 3 wt % benzyl alcohol and 95 wt % water to yield a peptide concentration of 2 wt % or approximately 20 mg/mL. The pH was adjusted to 8.5-9.0 using ethanolamine. The peptide solution was then pipetted into test wells containing dye solution in the amount of 1 mL or 0.2 mL respectively. The total volume in each test well was then adjusted to 2 mL where necessary using 3% aqueous benzyl alcohol (pH adjusted to 8.5-9.0 with ethanolamine). Peptide free controls consisted of 1 mL of dye solution diluted to 2 mL with the pH adjusted aqueous benzyl alcohol solution.
# (§5) Baseline […] readings were made on one inch long tresses (see below) using an X-RITE® SP78™ Sphere Spectrophotometer (X-Rite, Inc., Grandville, Mich.), by placing the hair tress into the photosensor and calculating L*, a* and b* parameters representing the photometer response. All measurements were the average of three individual determinations.
# (§6) The tresses (potted on one end with resin) of natural white, 85% gray or regular bleached hair (International Hair Importers and Products, Bellerose, N.Y.) were immersed in the peptide/dye solution and the entire well plate was agitated on a VORTEX-GENIE® 2 Mixer (Scientific Industries, Bohemia, N.Y.) at a speed setting of 1 for 30 minutes. The tresses were removed from the wells, rinsed for 30 seconds under flowing deionized water and then air dried.
# (§7) The following complement of beads was then added to each well containing a hair tress: (8 beads in all; 4 Novagen Coli Rollers Plating Beads—sterilized (EMD Biosciences, San Diego, Calif.; Catalog No. 71013), 2 BioSpec 6.35 mm glass beads (BioSpec Products, Bartlesville, Okla.; Catalog No. 11079635), and 2 BioSpec 3.2 mm Stainless Steel Bead (Catalog No. 11079132ss).
# (§8) Then 2.5 mL of aqueous 50% Pantene Pro V® shampoo (Proctor & Gamble Co., Cincinnati, Ohio) was pipetted into each well. The plate was placed on a VWR® VX-2500 Multi-tube Vortexer (VWR, West Chester, Pa.) for 5 minutes to simulate shampooing with embrocation. The hair tresses were then rinsed under flowing deionized water and air dried. This cycle was repeated two more times except that the length of time was 10 minutes for both subsequent embrocation cycles. (This treatment was previously determined to simulate approximately 12 manual shampoo cycles.) At the conclusion of the third embrocation cycle L*, a* and b* values were measured and Delta E values (ΔE) were calculated using equation 1 below:
# (§9) where L*=the lightness variable and a* and b* are the chromaticity coordinates of CIELAB colorspace as defined by the International Commission of Illumination (CIE) (Minolta, Precise Color Communication—Color Control From Feeling to Instrumentation, Minolta Camera Co., 1996).
# (§10) The Delta E value (ΔE) indicates color retention relative to the non-dyed hair and larger Delta E values indicate better performance. Values listed in the table represent the difference in Delta E values between the peptide-containing sample and the peptide free control. This difference is indicative of color retention after shampoo or water rinse treatments and positive values indicate better performance relative to the peptide free controls (Table 12).
# [5] = as above; design: species or system human; key: ΔE of peptide sample minus peptide-free control; larger = better retention; conditions: difference in Delta E between peptide sample and peptide free control after 3 embrocation cycles (about 12 manual shampoos); pH 8.5-9.0; >2 benefit, >4 substantial benefit
# Experimental: as §3, §4, §5, §6, §7, §8, §9, §10
# [6] = Charged multi-block peptide applied to dyed hair (Arianor Sienna Brown, Basic Brown 17) as protective sealant, color loss; design: species or system human; key: ΔE color loss vs peptide-free control; ≥3 units = meaningful difference
# Experimental: A 0.5% aqueous Arianor Sienna Brown (Basic Brown 17; Sensient Technologies Corp, Milwaukee, Wis.) solution, containing 3% benzyl alcohol and 0.05% diazolidinyl urea (biocide) was prepared. This dye solution was divided into two equal volumes, one unmodified at pH4 and a second portion adjusted to pH ranged from 8.50 to 9.0, using ethanolamine.
# Minitresses (1 inch long) of natural white hair (International Hair Importers and Products, Bellerose, N.Y.) were immersed into the acidic or basic dye solutions for 30 minutes, water rinsed and then air dried overnight. The tresses were then cut into individual sections weighing 30-75 mg each. L*, a*, b* values for individual dyed hair tresses were then measured using a spectrophotometer.
# Aqueous peptide solutions varying in concentration were adjusted by addition of ethanolamine to pH […] or made slightly basic (pH 8.5-9.0). The 3% benzyl alcohol diluent was also pH adjusted in the same fashion.
# as §7, with “Each cavity of a well plate (Thomson Instrument Co. part no. 931565, 24-10 ml wells), contained the assortment” for “The following complement”, “beads” for “beads was then added to each well containing a hair tress:”
# Target peptide and diluent were added using an automatic pipette. Controls without peptide were made using pH-adjusted diluent only. After several minutes of mixing (VORTEX-GENIE® 2, Scientific Industries, Bohemia, N.Y.) a small dyed hair tress was added to each well and stirred for 30 minutes on the vortex mixer. When stirring was complete, the hair tresses were removed from the wells and rinsed under running deionized water for 20-30 seconds.
# The wet hair tresses were inserted into a modified well plate into which holes had been drilled to allow them to be air dried. Once the tresses were dried, colorimetric readings were taken for color loss after water rinse. Hair tresses were reinserted into their respective wells along with beads and 2.5 mL of aqueous 50% Pantene Pro V® shampoo was pipetted onto the hair. The plate was placed into a VWR® VX-2500 Multi-tube Vortexer (VWR, West Chester, Pa.) for 5-15 minutes to simulate shampooing with embrocation. The hair tresses were then rinsed under flowing deionized water and air dried. This cycle was repeated according to the number of simulated embrocation cycles desired. Colorimetric data for color loss was compiled and plotted against peptide free controls. A difference of at least 3 Delta E units verses controls was judged to be sufficient for differentiating peptide performance verses peptide free controls.
molecule,measurement,setting,value
AANPHTEWDRDAFQLAMPPK [BoEn 1],O.D. at 450 nm,[1],1.402
EPPTRTRVNNHTVTVQAQQH [BoEn P2],O.D. at 450 nm,[2],0.641
GYCLRGDEPAVCSG [BoEn P3],O.D. at 450 nm,[2],0.665
KF11-GGG-GHGHQKQHGLGHGHKHGHGHGHGHGK (PNTSQLSTGGGGHGHQKQHGLGHGHKHGHGHGHGHGK; Peptide having affinity for hair) [HC 81],Delta E,[3],31.57
same,ΔE Retention Ebony Dye with 85% Gray Hair,[4],7.58
same,ΔE Retention Ebony Dye Regular Bleached Hair,[5],−0.1
same,ΔE Retention Ebony dye with Natural White Hair,[5],0.6
LNDQRKPGPPTMPTHSPAVG [BoEn 5],O.D. at 450 nm,[1],0.944
NFCETQLDLSVCTV [BoEn P5],O.D. at 450 nm,[2],0.797
NTCATSPNSYTCSN [BoEn 6],O.D. at 450 nm,[1],2.38
NTCQPTKNATPCSA [BoEn P6],O.D. at 450 nm,[2],0.83
SDCTAGLVPPLCAT [BoEn 7],O.D. at 450 nm,[1],0.892
"SSNYNYNYNYQYSSR (Peptide having affinity for hair) [Dye-1, reference compound]",ΔE Loss,"[6]; pH 3.9, 12 shampoo equivalents",14
SSNYNYNYNYQYSSR-EGEGER (SSNYNYNYNYQYSSREGEGER; Peptide having affinity for hair) [Dye-1 Anionic],ΔE Loss,"[6]; pH 4.5, 12 shampoo equivalents",1.93
same,ΔE Loss,"[6]; pH 8.8, 12 shampoo equivalents",0.34
SSNYNYNYNYQYSSR-KRKRKD (SSNYNYNYNYQYSSRKRKRKD; Peptide having affinity for hair) [Dye-1 Cationic],ΔE Loss,"[6]; pH 4.5, 25 shampoo equivalents",6
same,ΔE Loss,"[6]; pH 8.7, 25 shampoo equivalents",3.22
THNMSHFPPSGHPKRTAT [BoEn P8],O.D. at 450 nm,[2],2.02
VGTMKQHPTTTQPPRVSATN [BoEn 9],O.D. at 450 nm,[1],0.568
YSETPNDQKPNPHYKVSGTK [BoEn 10],O.D. at 450 nm,[1],3.942
PG-PMMA4A-GAG-PMMA4A-GGSGPGSGG-KF11-GGG-KF11-GGPKK (Peptide having affinity for hair) PGHTHHDTHKPWPTDAHRNSSVGAGHTHHDTHKPWPTDAHRNSSVGGSGPGSGGNTSQLSTGGGNTSQLSTGGPKK,ΔE Loss,"[6]; pH 5.1, 12 shampoo equivalents",11.56
same,ΔE Loss,"[6]; pH 8.8, 12 shampoo equivalents",6.95
PG-PMMA9-GAG-PMMA9-GGSGPGSGG-KF11-GS(KGGGS)4-KF11-GGPWKK (Peptide having affinity for hair) PGIDTFYMSTMSHSGAGIDTFYMSTMSHSGGSGPGSGGNTSQLSTGSKGGGSKGGGSKGGGSKGGGSNTSQLSTGGPWKK,ΔE Loss,"[6]; pH 5.7, 12 shampoo equivalents",11.41

# Reference: patent publication US20080280810A1, “PEPTIDES HAVING AFFINITY FOR BODY SURFACES” (priority 2006, published 2008)
